Assay results: patent US20200038411A1, “METHODS OF TREATING TE[…]” (priority 2017, published 2020)
Entries after “also recorded” stand apart in the source; their conditions may differ.

What was measured:
[1] = men; upper range for testosterone administered as TU (lymphatic absorption); cited from earlier work
[2] = Blood collected into different tubes spiked with TU, measured T (LA Biomed experiments); assay type: in vitro ADME, human
Excerpt: Additionally, non-specific esterases in blood may lead to hydrolysis of testosterone undecanoate (TU) (and its metabolite DHTU) during the blood collection procedure used to collect serum or plasma for evaluating T, dihydrotestosterone (DHT), TU and dihydrotestosterone undecanoate (DHTU) concentrations. If the extent of hydrolysis ex vivo is significant (e.g., at high concentrations of circulating TU or DHTU), then serum or plasma values of T, DHT, TU and DHTU may not accurately reflect the true in vivo concentrations of these compounds (e.g., T and DHT values may be artificially high due to ex vivo conversion of TU to T or DHTU to DHT). It has previously been shown that the collection of blood in sodium fluoride (NaF) containing tubes (so called ‘gray tops’ in a clinical setting) interfered with the measurement of serum T with a 20% decrease in the measured serum T levels (Wang, et al, 2008). […] In addition, the measured T concentrations in fluoride-containing tubes decreased by about 12 to 25%. Lachance et al published an article in 2015 that concluded T must be analyzed in enzyme-inhibited (i.e., NaF containing) plasma or serum when TU is administered to subjects in an oral form.

[3] = In vitro conversion of TU to T in whole blood at ambient temperature; assay type: in vitro ADME; details: human blood, conditions typical of harvesting serum, no enzyme inhibitors
Procedure: Testosterone undecanoate is metabolized into testosterone. Its degradation in whole blood into testosterone has been studied in conditions typically used in clinical trials.
The in vitro conversion of TU to T in whole blood samples at ambient temperature was investigated by harvesting approximately 50 mL of blood from subjects prior to their oral TU administration. Aliquots of the pretreatment whole blood were added to 5 Plain sample collection tubes each tube previously spiked with 1 of 5 selected concentrations of TU (0, 30, 100, 300 and 1000 ng/mL). After gentle mixing, the tubes were stored at room temperature (about 23° C.) for 30 minutes prior to separating serum. […]
The frozen samples were stored at −20° C. until assay. All samples from a single participant were analyzed in the same assay run. Serum and plasma from the different tubes were measured using the methods developed for serum. Both T and DHT were measured in the same assay and both TU and […] were analyzed in the same assay developed for serum measurements. […]
When serum is harvested in the absence of enzyme inhibitors, the hydrolysis of TU and DHTU to T and DHT occurs during whole blood collection and processing to serum. […] Thus, testosterone must be analyzed in enzyme-inhibited plasma when TU is the administered medication.

[4] = Single 316 mg oral TU dose, T concentration-time profiles by sample collection tube type; assay type: in vivo, human; details: 3 hours post dose
Procedure: Each study participant received a single oral TU dose containing 316 mg TU immediately prior to a standardized breakfast meal comprised of 800 to 1000 calories containing approximately 30 g of fat or about 25 to 30 percent fat. Subjects were instructed to consume the entire breakfast meal in no more than 30 minutes. Blood samples were collected 30 minutes prior to oral TU administration and at 0 (pre-dose), and 1, 2, 3, 4, 5, 6, 7, 8, 9, 10, 11 and 12 hrs post-dose. Because of the timed sample collections, all except for one subject entered the clinical research unit around 7 AM and spend the study period of 12 to 14 hours in the unit. […]
Blood samples collected in tubes were kept at room temperature for 30 minutes then centrifuged at 4° C. for 20 minutes at >1000 g. For each blood collection tube, serum was separated promptly after centrifugation and equal quantities of serum were transferred into 2 appropriately labelled polypropylene tubes. […]
Blood samples collected in tubes were immediately kept on ice for 30 minutes then centrifuged at 4° C. for 20 minutes at >1000 g. For each blood collection tube, serum was separated promptly after centrifugation and equal quantities of serum were transferred into 2 appropriately labelled polypropylene tubes. […]
The frozen samples were stored at −20° C. until assay. All samples from a single participant were analyzed in the same assay run. […]

Row | Structure (SMILES) | plasma half-life of testosterone [1] [min] | increases in the measured T levels after spiking with TU ([2]; NaF+oxalate and NaF+EDTA tubes kept at 4° C. for 30 minutes, 0, 300 or 600 ng/ml TU) | increase in measured T concentrations (ex vivo conversion of TU to T) ([2]; addition of TU in excess of 500 ng/ml, standard 'red top' plain tubes without additives) [%] | degradation (conversion) of TU to testosterone in whole blood [3] | difference in mean T concentration between the Plain tube type and the other tube types [4] | mean assayed T concentration of NaF tube types, less than the Plain tube type [4]
1 | C[C@]12CC[C@H]3[C@@H](CCC4=CC(=O)CC[C@@]43C)[C@@H]1CC[C@@H]2O [T, Testosterone] | 10 to 100 | – | – | – | – | –
2 | CCCCCCCCCCC(=O)O[C@H]1CC[C@H]2[C@@H]3CCC4=CC(=O)CC[C@]4(C)[C@H]3CC[C@]12C [TU, testosterone undecanoate] | – | minimal increases | 20 to 25 | degrades extensively; also recorded: extensive and continues over time | approximately 150 ng/dL | approximately 14%
